ChEMBL document CHEMBL3393019, “Synthesis and evaluation of NS5A inhibitors containing diverse heteroaromatic cores” (Bioorg Med Chem Lett, 2015)

How the values were obtained:
[1] = tested on: Hepatitis C virus; experiment: Antiviral activity against Hepatitis C virus genotype 1a infected in W11.8 cells assessed as decrease in NS5A expression in replicon cell after 4 days by luminescence based ELISA; format: functional, Hepacivirus hominis; conditions: subtype 1a, W11.8, 96 h
[2] = tested on: Hepatitis C virus; experiment: Antiviral activity against Hepatitis C virus genotype 1b infected in human Huh-5.2 cells assessed as decrease in HCV replicon RNA replication after 4 days by luciferase assay; format: functional, cell-based, Hepacivirus hominis; conditions: Huh-5-2, 96 h
[3] = Cytotoxicity against human Huh7ET cells by [3H]thymidine incorporation assay; format: cell-based, Huh-7
[4] = Clearance in iv dosed rat; format: ADME, organism-based; conditions: in vivo
[5] = Half life in iv dosed rat; format: ADME, organism-based; conditions: in vivo
[6] = Volume of distribution at steady state in iv dosed rat; format: ADME, organism-based; conditions: in vivo, read-out: Vdss
[7] = AUC (0 to 8 hrs) in po dosed rat; format: ADME, organism-based; design: time < 8 hr, route oral; conditions: plasma
[8] = Half life in po dosed rat; format: ADME, organism-based; conditions: in vivo
[9] = Cmax in po dosed rat; format: ADME, organism-based; design: route oral; conditions: in vivo
[10] = Oral bioavailability in rat; format: ADME, organism-based; conditions: in vivo

| SMILES | EC50 [1] [nM] | EC50 [2] [nM] | clearance [4] [mL/min/kg] | half-life [5] [h] | Vd [6] [L/kg] | AUC(0-t) at 8 h [7] [ng·h/mL] | half-life [8] [h] | Cmax [9] [ng/mL] | bioavailability [10] [%] | CC50 [3] [nM] |
| --- | --- | --- | --- | --- | --- | --- | --- | --- | --- | --- |
| COC(=O)N[C@H](C(=O)N1C[C@@H](C)C[C@H]1c1nc2cc(-c3ccc(-c4ccc5oc([C@@H]6C[C@H](C)CN6C(=O)[C@@H](NC(=O)OC)C(C)C)nc5c4)cc3)ccc2o1)C(C)C | > 2000 | 223 |  |  |  |  |  |  |  | 7000 |
| COC(=O)N[C@H](C(=O)N1C[C@@H](C)C[C@H]1c1nc2cc(-c3ccc(-c4ccc5oc([C@@H]6C[C@H](C)CN6C(=O)[C@@H](NC(=O)OC)C(C)C)nc5c4)cc3)ccc2[nH]1)C(C)C | 58 | 0.017 |  |  |  |  |  |  |  | > 20000 |
| COC(=O)N[C@H](C(=O)N1C[C@@H](C)C[C@H]1c1nc2cc(-c3cc4sc(-c5ccc6oc([C@@H]7C[C@H](C)CN7C(=O)[C@@H](NC(=O)OC)C(C)C)nc6c5)cc4s3)ccc2o1)C(C)C | > 2000 | 23 |  |  |  |  |  |  |  | > 20000 |
| COC(=O)N[C@H](C(=O)N1C[C@@H](C)C[C@H]1c1nc(-c2ccc(-c3ccc(-c4ccc5oc([C@@H]6C[C@H](C)CN6C(=O)[C@@H](NC(=O)OC)C(C)C)nc5c4)cc3)cc2)c[nH]1)C(C)C | 11 | 0.023 |  |  |  |  |  |  |  | > 20000 |
| COC(=O)N[C@H](C(=O)N1C[C@@H](C)C[C@H]1c1nc2ccc(-c3ccc(-c4ccc5nc([C@@H]6C[C@H](C)CN6C(=O)[C@@H](NC(=O)OC)C(C)C)oc5c4)cc3)cc2o1)C(C)C | 630 | 0.006 |  |  |  |  |  |  |  | 7000 |
| COC(=O)N[C@H](C(=O)N1C[C@@H](C)C[C@H]1c1nc2cc(-c3ccc(-c4ccc5nc([C@@H]6C[C@H](C)CN6C(=O)[C@@H](NC(=O)OC)C(C)C)oc5c4)cc3)ccc2[nH]1)C(C)C | 1.8 | 0.008 |  |  |  |  |  |  |  | > 20000 |
| COC(=O)N[C@H](C(=O)N1C[C@@H](C)C[C@H]1c1nc2ccc(-c3cc4sc(-c5ccc6nc([C@@H]7C[C@H](C)CN7C(=O)[C@@H](NC(=O)OC)C(C)C)oc6c5)cc4s3)cc2o1)C(C)C | 43 | 0.019 |  |  |  |  |  |  |  | > 20000 |
| COC(=O)N[C@H](C(=O)N1C[C@@H](C)C[C@H]1c1cc2cc(-c3cc4sc(-c5ccc6[nH]c([C@@H]7C[C@H](C)CN7C(=O)[C@@H](NC(=O)OC)C(C)C)nc6c5)cc4s3)ccc2[nH]1)C(C)C | 1.3 | 0.006 |  |  |  |  |  |  |  | > 20000 |
| COC(=O)N[C@H](C(=O)N1C[C@@H](C)C[C@H]1c1nc2cc(-c3cc4sc(-c5ccc6sc([C@@H]7C[C@H](C)CN7C(=O)[C@@H](NC(=O)OC)C(C)C)nc6c5)cc4s3)ccc2[nH]1)C(C)C | 6.8 | 0.025 |  |  |  |  |  |  |  | > 20000 |

Molecules with a lower EC50 [1], results first:

| EC50 [1] [nM] | EC50 [2] [nM] | clearance [4] [mL/min/kg] | half-life [5] [h] | Vd [6] [L/kg] | AUC(0-t) at 8 h [7] [ng·h/mL] | half-life [8] [h] | Cmax [9] [ng/mL] | bioavailability [10] [%] | SMILES | CC50 [3] [nM] |
| --- | --- | --- | --- | --- | --- | --- | --- | --- | --- | --- |
| 0.164 | 0.005 |  |  |  |  |  |  |  | COC(=O)N[C@H](C(=O)N1C[C@@H](C)C[C@H]1c1nc(-c2ccc(-c3ccc(-c4ccc5nc([C@@H]6C[C@H](C)CN6C(=O)[C@@H](NC(=O)OC)C(C)C)oc5c4)cc3)cc2)c[nH]1)C(C)C | > 20000 |
| 0.032 | 0.003 |  |  |  |  |  |  |  | COC(=O)N[C@H](C(=O)N1C[C@@H](C)C[C@H]1c1nc2cc(-c3cc4sc(-c5ccc6oc([C@@H]7C[C@H](C)CN7C(=O)[C@@H](NC(=O)OC)C(C)C)nc6c5)cc4s3)ccc2[nH]1)C(C)C | > 20000 |
| 0.029 | 0.004 | 6.2 | 5.6 | 2.8 | 376 | 14.8 | 0.01 | 7.3 | COC(=O)N[C@H](C(=O)N1C[C@@H](C)C[C@H]1c1nc2cc(-c3cc4sc(-c5ccc6nc([C@@H]7C[C@H](C)CN7C(=O)[C@@H](NC(=O)OC)C(C)C)oc6c5)cc4s3)ccc2[nH]1)C(C)C | > 20000 |
| 0.024 | 0.004 |  |  |  |  |  |  |  | COC(=O)N[C@H](C(=O)N1C[C@@H](C)C[C@H]1c1nc2cc(-c3cc4sc(-c5ccc6nc([C@@H]7C[C@H](C)CN7C(=O)[C@@H](NC(=O)OC)C(C)C)n(C)c6c5)cc4s3)ccc2[nH]1)C(C)C | > 20000 |
| 0.021 | 0.016 |  |  |  |  |  |  |  | COC(=O)N[C@H](C(=O)N1C[C@@H](C)C[C@H]1c1ncc(-c2cc3sc(-c4ccc5[nH]c([C@@H]6C[C@H](C)CN6C(=O)[C@@H](NC(=O)OC)C(C)C)nc5c4)cc3s2)[nH]1)C(C)C | > 20000 |
| 0.02 | 0.006 | 4.7 | 4.6 | 1.6 | 659 | 16.6 | 0.02 | 8.4 | COC(=O)N[C@H](C(=O)N1C[C@@H](C)C[C@H]1c1cc2ccc(-c3cc4sc(-c5ccc6[nH]c([C@@H]7C[C@H](C)CN7C(=O)[C@@H](NC(=O)OC)C(C)C)nc6c5)cc4s3)cc2[nH]1)C(C)C | > 20000 |
| 0.011 | 0.004 |  |  |  |  |  |  |  | COC(=O)N[C@H](C(=O)N1C[C@@H](C)C[C@H]1c1nc2cc(-c3cc4sc(-c5cc6nc([C@@H]7C[C@H](C)CN7C(=O)[C@@H](NC(=O)OC)C(C)C)[nH]c6s5)cc4s3)ccc2[nH]1)C(C)C | > 20000 |
| 0.008 | 0.006 | 8.1 | 3.5 | 1.6 | 281 | 17.2 | 0.01 | 8.4 | COC(=O)N[C@H](C(=O)N1C[C@@H](C)C[C@H]1c1ncc(-c2ccc(-c3cc4sc(-c5ccc6[nH]c([C@@H]7C[C@H](C)CN7C(=O)[C@@H](NC(=O)OC)C(C)C)nc6c5)cc4s3)cc2)[nH]1)C(C)C | > 20000 |
| 0.006 | 0.004 |  |  |  |  |  |  |  | COC(=O)N[C@H](C(=O)N1C[C@@H](C)C[C@H]1c1cn2cc(-c3cc4sc(-c5ccc6[nH]c([C@@H]7C[C@H](C)CN7C(=O)[C@@H](NC(=O)OC)C(C)C)nc6c5)cc4s3)ccc2n1)C(C)C | 8000 |
| 0.004 | 0.009 |  |  |  |  |  |  |  | COC(=O)N[C@H](C(=O)N1C[C@@H](C)C[C@H]1c1nc2cc(-c3cc4sc(-c5ccc6nc([C@@H]7C[C@H](C)CN7C(=O)[C@@H](NC(=O)OC)C(C)C)[nH]c6c5)cc4s3)ccc2[nH]1)C(C)C | > 20000 |
